The values below come from patent EP4700040A1, “PEPTIDE AND LUMINESCENT COMPLEX CONTAINING SAME” (Shenzhen Loggene Life Science & Technology Co., Ltd., priority 2023, dated 2024).

The test system of assay [1] is human interleukin 6 (human IL6). The assay can be described thus: Luciferase dual-antibody complementary activation assay for human IL6 (Example 7). Type of assay: biochemical. The settings on record: estimated by ((mean+3SD)-RLU0.5)/(RLU5-RLU0.5)*4.5+0.5. An excerpt: Expression and purification of human IL6 recombinant protein: An expression vector of human IL6 (UniProtKB ID: P05231, AA29~212) with six histidine-tagged (C-terminal) fusion proteins (SEQ ID NO: 90) was constructed. The fusion protein was recombinantly expressed in E. coli, and purified with nickel column. The protein purity was detected by denaturing SDS-polyacrylamide gel electrophoresis, and the protein concentration was detected by nucleic acid-protein quantification instrument.
Expression and purification of a fusion protein of the small and large subunits with IL6 antibody: prokaryotic expression plasmids of the fusion protein RB073-449-1 (SEQ ID NO: 91) of the small subunit peptide RB073 with human IL6 SCFV antibody 449-1, and the fusion protein OL-453 (SEQ ID NO: 92) of the large subunit with human IL6 SCFV antibody 453 were constructed. The fusion proteins were recombinantly expressed in E. coli, and purified with nickel column. The protein purity was detected by denaturing SDS-polyacrylamide gel electrophoresis, and the protein concentration was detected by nucleic acid-protein quantification instrument.
Test Methods • (1) Recombinant human IL6 protein was diluted with PBSA in 10-fold gradient starting from 5000 pg/ml, with 5 gradients in total. […]

Assay [2] has as its system PCT. The assay can be described thus: Complementary activity of small subunits mutated at conserved positions, Furimazine substrate (Example 6). As to conditions: MBP-PCT 3.3 ng/ml, supernatant. Type of assay: biochemical, human. Here is the method:
Detection Methods: • (1) The concentration of large subunit-rSCFV5 fusion protein was diluted to 12.5 nM, and 15 µl was added per well; • (2) MBP-PCT fusion protein was diluted to 3.3 ng/ml with PBSAD, and 10 µl was added per well; • (3) HB2151 strain containing plasmids with different small subunit sequences were induced by IPTG at 30°C overnight, then treated with polymyxin B for 1.5h, and centrifuged to collect the supernatant, and 2.5µl supernatant was added per well; • (4) The above three components were slightly mixed, incubated at 37°C for 7 min, and Obuffer 6.37-3 containing Furimazine at a concentration of 25 µM was added, […], the luminescence signal value was detected using a bioluminescence detector; and • (5) Clones with RLU higher than 10,000 were picked. The substrate was replaced with CTZ-h substrate for retesting (Obuffer 6.37-3 containing CTZ-h at a concentration of 25 µM was added, and after 60 s, the luminescence signal value was detected using a bioluminescence detector), and a PBSAD control was added to test the signal-to-noise ratio.
In order to further determine whether these three conserved amino acid sequences were changed, this example constructed a random mutation library of these three positions, with a theoretical diversity of 8,000 and a library capacity of 10^6, and 2,000 single clones were picked. The method of protein induction and expression was the same as that in Example 1. The complementary activity was tested in the same manner as that in Example 4, but the signal-to-noise ratio was not retested with CTZ-h. Clones with different activity were randomly picked for sequencing.

Assay [3] has as its system PCT. Description: Second library screening for PCT detection, clone supernatants, retest with CTZ-h (Example 4). In kind it is biochemical, human. The method, then:
In order to further improve the signal-to-noise ratio and complementary activity of the luciferase dual-antibody complementary activation assay, novel complementary luciferase small subunits were prepared in this example. Large subunit-rSCFV5 fusion protein (SEQ ID NO: 87) was kept unchanged, and the small subunit sequence of the rSCFV18-RB073 fusion protein (SEQ ID NO: 89) were modified by semi-randomization. The theoretical diversity was 6912, the library capacity was 10^6, and 3,000 single clones were picked. The method of protein induction and expression was the same as that in Example 2.
Detection Methods: • (1) The concentration of large subunit-rSCFV5 fusion protein was diluted to 12.5 nM, and 15 µl was added per well; • (2) MBP-PCT fusion protein was diluted to 3.3 ng/ml with PBSAD, and 10 µl was added per well; • (3) HB2151 strain containing plasmids with different small subunit sequences were induced by IPTG at 30°C overnight, then treated with polymyxin B for 1.5h, and centrifuged to collect the supernatant, and 2.5µl supernatant was added per well; • (4) The above three components were slightly mixed, incubated at 37°C for 7 min, and Obuffer 6.37-3 containing Furimazine at a concentration of 25 µM was added, and after 3 min, the luminescence signal value was detected using a bioluminescence detector; and • (5) Clones with RLU higher than 10,000 were picked. The substrate was replaced with CTZ-h substrate for retesting (Obuffer 6.37-3 containing CTZ-h at a concentration of 25 µM was added, and after 60 s, the luminescence signal value was detected using a bioluminescence detector), and a PBSAD control was added to test the signal-to-noise ratio.

The test system of assay [4] is PCT. Description: Sensitivity and linear range for PCT detection of preferred small subunits (Example 5). Type of assay: biochemical, human. As to conditions: for luminescence value: normalized. Here is the method:
Detection Methods: • (1) The concentration of large subunit-rSCFV5 fusion protein was diluted with PBSA to 8.3~25nM, and 15µl was added per well; • (2) MBP-PCT fusion proteins were diluted with PBSAD in a downward gradient starting from 2.5 µg/ml, and 10 µl was added per well; • (3) The rSCFV18-small subunit mutant-containing fusion protein was diluted with PBSA to 30~180 nM, and 15 µl was added per well; • (4) The above three components were slightly mixed, incubated at 37°C for 15 min, and Obuffer 6.37-3 containing CTZ-h at a concentration of 15 µM was added, and the luminescence signal value was immediately detected using a bioluminescence detector (the luminescence value was normalized);

For VEGYRLFDRKS [RB073], in assay [1], the “LLD (low limit of detection)” value is 0.79 pg/mL. In assay [2] (3 min after Furimazine 25 µM), the “activity (luminescence signal value), 3 min” value was 46672. Besides, in assay [2] (6 min after Furimazine 25 µM), the “activity (luminescence signal value), 6 min” value came to 32973.
For VTGYRLFEEIL [P114, reference compound], the Signal-to-noise ratio in assay [3] (PCT+/PCT-, MBP-PCT 3.3 ng/ml, CTZ-h) came out at 1.9. For the same sequence, the “PCT+” value in assay [3] (luminescence signal value with MBP-PCT 3.3 ng/ml, large subunit-rSCFV5 12.5 nM, CTZ-h 25 µM, 60 s) worked out at 1493. Further, the PCT- in assay [3] (luminescence signal value, PBSAD control without PCT, large subunit-rSCFV5 12.5 nM, CTZ-h 25 µM, 60 s) was 786. Also, the luminescence value in assay [4] (PCT 0.0, background) is recorded as 5000; in assay [4] (PCT 1 (pg/ml)) it was 5324; in assay [4] (PCT 3 (pg/ml)), 5403; in assay [4] (PCT 10 (pg/ml)) it was 5314; in assay [4] (PCT 30 (pg/ml)), 5724; in assay [4] (PCT 100 (pg/ml)), 5429. The luminescence value in assay [4] (PCT 1000 (pg/ml)) is reported as 18939; in assay [4] (PCT 10000 (pg/ml)), 99257; in assay [4] (PCT 100000 (pg/ml)) it was 804042; in assay [4] (PCT 250000 (pg/ml)), 1431884. Also, in assay [4] (large subunit 8.3~25 nM, small subunit fusion 30~180 nM, CTZ-h 15 µM), the “Signal-to-noise ratio at 1000 pg/ml” value is reported as 3.8.
